According to patent US6504058B1 (priority 1997, dated 2003):

Columns and labels:
Puccinia recondita = assay: Test B: wheat leaf rust, preventive spray on wheat seedlings, disease rating; assay type: in vivo, Puccinia recondita (on wheat seedlings); conditions: 200 ppm test suspension sprayed to run-off (equivalent to 500 g/ha) on wheat seedlings; 100 = 100% disease control, 0 = no control; # = significant activity
Source text: (§1) Test compounds were first dissolved in acetone in an amount equal to 3% of the final volume and then suspended at a concentration of 200 ppm in purified water containing 250 ppm of the surfactant Trem® 014 (polyhydric alcohol esters). The resulting test suspensions were then used in the following test. Spraying these 200 ppm test suspensions to the point of run-off on the test plants is the equivalent of a rate of 500 g/ha.
(§2) The test suspension was sprayed to the point of run-off on wheat seedlings. The following day the seedlings were inoculated with a spore suspension of Puccinia recondita (the causal agent of wheat leaf rust) and incubated in a saturated atmosphere at 20° C. for 24 h, and then moved to a growth chamber at 20° C. for 6 days, after which disease ratings were made.
(§3) Results for Tests A-E are given in Table A. In the table, a rating of 100 indicates 100% disease control and a rating of 0 indicates no disease control (relative to the controls). A dash (-) indicates no test results. ND indicates disease control not determined due to phytotoxicity. # indicates significant activity.

Botrytis cinerea = assay: Test E: gray mold, preventive spray on cucumber seedlings, disease rating; assay type: in vivo, Botrytis cinerea (on cucumber seedlings); conditions: 200 ppm test suspension sprayed to run-off (equivalent to 500 g/ha) on cucumber seedlings; 100 = 100% disease control, 0 = no control; # = significant activity
Source text: as §1
as §2, with “cucumber” for “wheat”, “Botrytis cinerea” for “Puccinia recondita”, “gray mold on many crops)” for “wheat leaf rust)”, “48” for “24”, “and” for “and then”, “5” for “6”
as §3

[1] = tested on: Erysiphe graminis f. sp. tritici; assay: Test A: wheat powdery mildew, preventive spray on wheat seedlings, disease rating; assay type: in vivo, Erysiphe graminis f. sp. tritici (on wheat seedlings); conditions: 200 ppm test suspension sprayed to run-off (equivalent to 500 g/ha) on wheat seedlings; 100 = 100% disease control, 0 = no control; # = significant activity
Source text: as §1
The test suspension was sprayed to the point of run-off on wheat seedlings. The following day the seedlings were inoculated with a spore dust of Erysiphe graminis f. sp. tritici, (the causal agent of wheat powdery mildew) and incubated in a growth chamber at 20° C. for 7 days, after which disease ratings were made.
as §3

Phytophthora infestans = assay type: in vivo, Phytophthora infestans (on tomato seedlings); conditions: 200 ppm test suspension sprayed to run-off (equivalent to 500 g/ha) on tomato seedlings; 100 = 100% disease control, 0 = no control; # = significant activity
Pyricularia oryzae = assay type: in vivo, Pyricularia oryzae (on rice seedlings); conditions: 200 ppm test suspension sprayed to run-off (equivalent to 500 g/ha) on rice seedlings; 100 = 100% disease control, 0 = no control; # = significant activity

Row | SMILES | Test B disease control rating (wheat leaf rust) (Puccinia recondita) | Test E disease control rating (gray mold) (Botrytis cinerea) | Test A disease control rating (wheat powdery mildew) [1] | Test D disease control rating (potato and tomato late blight) (Phytophthora infestans) | Test C disease control rating (rice blast) (Pyricularia oryzae)
1 | CC(COc1cc(F)ccc1Cl)NC(=O)C1(C)CC(C)(Br)C1 (stereo not shown) [compound 56] | 0 (a rating of 0 indicates no disease control (relative to the controls)) | 0 (a rating of 0 indicates no disease control (relative to the controls)) | 99# % | 0 (a rating of 0 indicates no disease control (relative to the controls)) | 100# (a rating of 100 indicates 100% disease control)
2 | CC(NC(=O)C1(C(F)(F)F)CC(C)(Cl)C1)c1ccc(Cl)cc1Cl (stereo not shown) [compound 9] | 0 (a rating of 0 indicates no disease control (relative to the controls)) | 0 (a rating of 0 indicates no disease control (relative to the controls)) | 0 (a rating of 0 indicates no disease control (relative to the controls)) | 0 (a rating of 0 indicates no disease control (relative to the controls)) | 100# (a rating of 100 indicates 100% disease control)
3 | CC(COc1cc(Cl)ccc1C#N)NC(=O)C1(C)CC(C)(Cl)C1 (stereo not shown) [compound 45] | 0 (a rating of 0 indicates no disease control (relative to the controls)) | 0 (a rating of 0 indicates no disease control (relative to the controls)) | 0 (a rating of 0 indicates no disease control (relative to the controls)) | 61% | 99# %
4 | CC(NC(=O)C1(C(F)(F)F)CC(C)(Cl)C1)c1ccc(Cl)cc1Cl (stereo not shown) [compound 8] | 0 (a rating of 0 indicates no disease control (relative to the controls)) | 0 (a rating of 0 indicates no disease control (relative to the controls)) | 0 (a rating of 0 indicates no disease control (relative to the controls)) | 24% | 100# (a rating of 100 indicates 100% disease control)
5 | CC(COc1ccc(F)cc1C#N)NC(=O)C1(C)CC(C)(Cl)C1 (stereo not shown) [compound 39] | 25% | 47% | 0 (a rating of 0 indicates no disease control (relative to the controls)) | 45% | 97# %
6 | CC(NC(=O)C1(Cl)CC(Cl)(Cl)C1)c1ccc(Br)cc1 (stereo not shown) [compound 12] | 0 (a rating of 0 indicates no disease control (relative to the controls)) | 0 (a rating of 0 indicates no disease control (relative to the controls)) | 99% | 11% | 100# (a rating of 100 indicates 100% disease control)
7 | CC(NC(=O)C1(C)CC(C)(Br)C1)c1ccc(Cl)cc1Cl (stereo not shown) [compound 68] | 0 (a rating of 0 indicates no disease control (relative to the controls)) | 0 (a rating of 0 indicates no disease control (relative to the controls)) | 0 (a rating of 0 indicates no disease control (relative to the controls)) | 24% | 97# %
8 | CC(NC(=O)C1(C)CC(C)(Cl)C1)c1ccc2ccccc2c1 (stereo not shown) [compound 24] | 0 (a rating of 0 indicates no disease control (relative to the controls)) | 0 (a rating of 0 indicates no disease control (relative to the controls)) | 0 (a rating of 0 indicates no disease control (relative to the controls)) | 0 (a rating of 0 indicates no disease control (relative to the controls)) | 100# (a rating of 100 indicates 100% disease control)
